Where two headings read alike, the source gives them in different places.

In test [1] the test system is PC3 prostate cancer cells. Description: Cell proliferation assay (cell counts). In kind it is cell-based. The settings on record: 30 µM, starting at day 2 to day 6. As for the experimental part: PKD has emerged as a promising therapeutic target for cancer. […] Cell proliferation was determined by treating the cells at 30 µM concentration of agent, and then cell number was counted for six consecutive days in the presence and absence of inhibitor.
PC3 cells were plated in triplicates in 24-well plates. Cells were allowed to attach overnight. […] Cells were counted daily for a total of 5 days. Fresh media and inhibitor were added every 2 days. The means of triplicate determinations were plotted over time. The experiment was repeated twice and results from one representative experiment are shown. […] PC3 cells were seeded into 96-well plates (3000 cells/well) and were then incubated in media containing 0.3–100 µM inhibitors for 72 h. MTT solution was added to each well and incubated for 4 h. Optical density was read at 570 nm to determine cell viability. The IC50 was determined as the mean of two independent experiments for each compound. C. […] Cell cycle distribution was determined by flow cytometry after propidium iodide labeling of fixed cells. Statistical significance was determined by unpaired t-test and is indicated. **, p<0.01; ***, p<0.001. […]
Proliferation of PC3 cells was measured by counting the number of viable cells upon trypan blue staining as previously described. […] The labeled cells were analyzed using a FACSCalibur flow cytometer (BD Biosciences).

In test [2] the target is T1, PKD1 (Homo sapiens, UniProt Q15139).
T1 construct: GST; purchased Enzo Life sciences (Farmingdale, NY)
T1 sequence (Q15139 1-912): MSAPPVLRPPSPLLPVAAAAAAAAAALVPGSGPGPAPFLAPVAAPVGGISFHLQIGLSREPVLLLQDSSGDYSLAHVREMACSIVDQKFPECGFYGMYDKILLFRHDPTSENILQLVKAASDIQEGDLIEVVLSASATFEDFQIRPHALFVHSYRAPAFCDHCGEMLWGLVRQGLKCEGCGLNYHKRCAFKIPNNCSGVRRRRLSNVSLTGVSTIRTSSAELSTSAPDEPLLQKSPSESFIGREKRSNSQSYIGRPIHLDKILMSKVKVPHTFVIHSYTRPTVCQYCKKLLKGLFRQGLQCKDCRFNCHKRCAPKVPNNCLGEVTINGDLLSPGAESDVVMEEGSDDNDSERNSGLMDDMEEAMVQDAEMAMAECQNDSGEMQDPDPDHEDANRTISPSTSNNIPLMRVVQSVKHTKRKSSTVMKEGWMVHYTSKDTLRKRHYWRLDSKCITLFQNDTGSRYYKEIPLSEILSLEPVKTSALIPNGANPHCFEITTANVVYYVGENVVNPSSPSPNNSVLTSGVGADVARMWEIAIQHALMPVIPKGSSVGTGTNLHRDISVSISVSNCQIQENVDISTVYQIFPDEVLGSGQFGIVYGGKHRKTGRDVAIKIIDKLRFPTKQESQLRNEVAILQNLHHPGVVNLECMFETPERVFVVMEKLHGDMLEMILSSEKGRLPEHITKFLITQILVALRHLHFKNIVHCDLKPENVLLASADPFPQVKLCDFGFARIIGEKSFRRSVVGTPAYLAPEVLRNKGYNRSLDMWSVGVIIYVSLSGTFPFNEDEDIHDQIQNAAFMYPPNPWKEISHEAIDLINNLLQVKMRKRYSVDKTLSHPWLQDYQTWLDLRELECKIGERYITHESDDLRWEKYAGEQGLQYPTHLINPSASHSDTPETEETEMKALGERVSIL
Description: In vitro radiometric PKD1 screening assay at 1 µM. In kind it is biochemical. On the procedure: (§1) Phosphorylation of HDAC5 was detected in a kinase reaction having 1 µCi [γ-^32P] […] The reaction was incubated at 30°C for 10 minutes and 25 µL of the reaction was spotted on Whatman P81 filter paper. The filter paper was washed 3 times in 0.5% phosphoric acid, air dried and counted using Beckman LS6500 multipurpose scintillation counter. Percent PKD1 inhibition was graphed using GraphPad Prism software 5.0.

The target of another test is PKD isoforms. The test can be described thus: Radiometric PKD kinase assay, summary statement for PKD isoforms. In kind it is biochemical, human. The following applies: approximate, all PKD isoforms; read-out: concentration that blocked 50% of PKD activity.
For the next test, the target named is T2, Recombinant human PKD3 (Homo sapiens, UniProt O94806).
T2 sequence (O94806 1-890): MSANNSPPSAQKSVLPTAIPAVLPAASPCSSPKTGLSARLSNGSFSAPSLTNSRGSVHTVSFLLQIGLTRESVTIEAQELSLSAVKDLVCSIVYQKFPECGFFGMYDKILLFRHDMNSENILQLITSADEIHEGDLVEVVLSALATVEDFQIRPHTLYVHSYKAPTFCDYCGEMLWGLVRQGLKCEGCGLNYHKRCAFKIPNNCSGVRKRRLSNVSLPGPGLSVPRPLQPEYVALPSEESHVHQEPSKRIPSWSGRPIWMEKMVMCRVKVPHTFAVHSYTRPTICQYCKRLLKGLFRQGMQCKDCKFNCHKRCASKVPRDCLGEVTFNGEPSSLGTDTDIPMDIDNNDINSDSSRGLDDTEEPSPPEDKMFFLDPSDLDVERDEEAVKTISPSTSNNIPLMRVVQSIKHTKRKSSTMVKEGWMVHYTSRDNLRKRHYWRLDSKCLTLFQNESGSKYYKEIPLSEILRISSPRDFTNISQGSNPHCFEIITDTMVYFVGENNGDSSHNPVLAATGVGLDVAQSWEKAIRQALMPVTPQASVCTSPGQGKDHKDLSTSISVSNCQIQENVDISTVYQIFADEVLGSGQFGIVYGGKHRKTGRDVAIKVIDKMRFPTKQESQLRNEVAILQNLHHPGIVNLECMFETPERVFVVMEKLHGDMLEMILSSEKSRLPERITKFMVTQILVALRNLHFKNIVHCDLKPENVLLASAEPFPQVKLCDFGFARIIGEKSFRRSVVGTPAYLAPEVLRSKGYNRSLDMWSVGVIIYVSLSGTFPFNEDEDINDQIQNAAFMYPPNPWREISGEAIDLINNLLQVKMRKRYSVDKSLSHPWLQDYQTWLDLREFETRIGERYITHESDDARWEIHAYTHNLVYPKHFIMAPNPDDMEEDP
Description: Radiometric PKD kinase assay, 10-point IC50. In kind it is biochemical.

The target of test [3] is T1, PKD1. Description: Radiometric PKD kinase assay, 10-point IC50. Type of test: biochemical. As for the experimental part: as §1

Description for PKD isoforms: (§2) Recombinant human PKD1, 2, or 3 proteins were incubated in a mixture containing a peptide substrate derived from a PKD substrate, HDAC-5, and 10 different concentrations of the two compounds.
Description for Recombinant human PKD3: as §2
The IC50 values were calculated as the mean ±SEM of at least three independent experiments with triplicate determinations at each concentration of drug in each experiment. The data were plotted as a function of drug concentration and a representative graph is shown.

`CC(C)(C)n1nc(-c2cccc3ccccc23)c2c(N)ncnc21` [Compound 1-NA-PP1, 1-(t-Butyl)-3-(naphthalen-1-yl)-1H-pyrazolo[3,4-d]pyrimidin-4-amine]: in test [1], the “effect on PC3 cell proliferation (cell counts)” value was “drastic growth arrest”. Moreover, the inhibition at 1 µM at PKD1 [2] (read-out: % PKD1 Inhibition) was 77%; on PKD1 [2] (read-out: inhibition of PKD1 activity) it was 80%. Also, the IC50 is roughly 100 nM on PKD isoforms; 109 nM on Recombinant human PKD3; 104 nM on Recombinant human PKD3 (PKD3 IC50, value printed in the figure, representative graph).

In the case of `O=C(c1ccc(Nc2nccc(-c3cc4ccccc4s3)n2)cc1)N1CCC(N2CCCC2)CC1` [IKK-16, reference compound], the “% PKD1 Inhibition” value on PKD1 [2] (1 µM, targeted kinase inhibitor library screen, relative to DMSO) came to 67%. For the same compound, the IC50 is 154 nM on PKD1 [3] (mean ± SEM, read-out: IC50 PKD1); 162 nM on PKD1 [3] (value in the figure, read-out: PKD1 IC50); 99.7 nM at Recombinant human PKD3 (mean ± SEM, read-out: IC50 PKD3); 97 nM at Recombinant human PKD3 (value in the figure, representative graph, read-out: PKD3 IC50).

As a reminder, the inhibition is the percentage by which the read-out fell short of the control.

The values above are taken from article PMC3781056, “New Pyrazolopyrimidine Inhibitors of Protein Kinase D as Potent Anticancer Agents for Prostate Cancer Cells” (PLoS ONE, 2013).
